Patent publication US9783513B2, “STAT3 inhibitors and their anticancer use” (Ohio State Innovation Foundation, priority 2012, dated 2017)
pIC50, pKi: −log10 of the molar value. Like-named read-outs stand apart in the source and are kept apart here.

What was measured:
[1] = test system: human sarcoma cell line RD2; assay: Cell viability (MTT) assay, RD2; format: cell-based
Method: Human sarcoma cell lines (RD2, RH30, U2OS) were seeded in 96-well plates at a density of 3,000 cells per well. The cells were incubated at 37° C. for a period of 24 hours. Different concentrations of LY-5 (0.1-10 μM), LY-3 (0.1-20 μM), and LLL12 (0.1-10 μM) prepared as a 20 mM stock solution in sterile DMSO were added in triplicate to the plates in the presence of 10% FBS. 3-(4,5-Dimethylthiazolyl)-2, 5-diphenyltetrazoliumbromide (MTT) was added to evaluate cell viability. The absorbance was read at 595 nm. IC50 values were determined using SigmaPlot 9.0 Software (Systat Software, Inc., San Jose, Calif.).
Alternatively, cells were seeded in 96-well plates in triplicate at a density of 3,000 cells per well and given 24 hours to adhere. Cells were then treated with varying concentrations of the inhibitors in the presence of 10% FBS. The cells were incubated for 72 hours at 37° C. 25 μl of MTT dye (Sigma, #M5655) was added to each sample and incubated for 3.5 hours. After this, 100 μl of N,N-dimethylformamide (Sigma, #D4551) solubilization solution was added to each well. The absorbance at 450 nm was read the following day. Half-Maximal inhibitory concentrations (IC50) were determined using Sigma Plot 9.0 software (Systat Software Inc.).
Table 7 below lists specific compounds as well as experimentally determined STAT3 activity in a cell-based assay. The STAT3 activity was determined using the cell viability assays with human sarcoma cell lines (RD2, RH30, U2OS) as described above. The compound reference numbers (“Ref. No.”) in Table 7 correspond to the compound numbers used in Table 3.

STAT3 SH2 domain = STAT3 SH2 domain (Homo sapiens, UniProt P40763); assay: Fluorescence polarization (FP) assay; format: binding
STAT3 SH2 domain, sequence (P40763 580-670 limits assumed): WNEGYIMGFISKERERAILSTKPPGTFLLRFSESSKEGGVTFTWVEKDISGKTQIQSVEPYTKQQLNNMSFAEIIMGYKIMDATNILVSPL
Method: Screening was performed at physiologically relevant temperature 37° C. Before each experiment, Compound LY-5 was prepared freshly from the stock solution. Compound LY-5 increased its background fluorescence reading at 595 nm at high concentrations, so the control solutions for each concentration were prepared by mixing buffer, LY-5, and fluorescence-labeled peptides together.
Screening was performed at approximately 37° C. STAT3 protein was used at 300 nM. The final concentration of buffer components used for all FP assays was 10 mM HEPES (pH 7.5), 1 mM EDTA, 0.1% Nonidet P-40, 50 mM NaCl, and 20% DMSO. Dithiothreitol was not added. LP-5 was diluted to a series of concentrations (1-200 μM) from a 20 mM stock in DMSO. Proteins were incubated with LP-5 in Eppendorf tubes at room temperature for 60 min prior addition of the 5-carboxyfluorescein labeled peptides. The final concentration of labeled peptide is 10 nM. The mixtures were transferred to a 384 Well Costar Black plate with each concentration repeated in three wells. The mixtures were equilibrated in the incubator at 37° C. for at least 30 min. The FP readings were measured and the experiments were repeated three times. Inhibition curves with standard deviation were fitted and Ki value was determined accordingly.

STAT1 = assay: Western blot, STAT1 / Y701 phosphorylation; format: cell-based, human
Method: RH30 cells were treated with DMSO, LY-5 (0.25-1 μM) and LY-3 (0.5-2.5 μM) prepared as a 20 mM stock solution in sterile DMSO at 60% to 80% confluence in the presence of 10% FBS for 24 hours. The sarcoma cell line EW8 was treated with DMSO and LY-5 (0.5-2.5 μM) prepared as a 20 mM stock solution in sterile DMSO at 60% to 80% confluence in the presence of 10% FBS for 24 hours. MCF-7 cells and DAOY cells were treated with DMSO, 25-50 ng/ml of IL-6, LY-5 (0.25-1 μM) or LY-3 (0.5-2.5 μM) prepared as a 20 mM stock solution in sterile DMSO, protein expressions of P-STAT3 (Tyr705) and STAT3 were tested. DAOY cells were treated with DMSO, 50 ng/ml of IFN-γ, LY-5 (1-5 μM) prepared as a 20 mM stock solution in sterile DMSO, protein expressions of P-STAT3 (Tyr705) and STAT3 were tested. […]
The cells were harvested and lysed in cold radioimmunoprecipitation assay (RIPA) lysis buffer containing […] and phosphatase inhibitor cocktail, and were subjected to SDS-PAGE. […] Membranes were analyzed using Enhanced Chemiluminescence Plus reagents and scanned with the Storm Scanner (Amersham Pharmacia Biotech, Inc., Piscataway, N.J.).
MCF-7 breast cancer cells were seeded in 10 cm plates and allowed to adhere overnight. […] The cells were harvested after 30 minutes and analyzed by Western blot.

cleaved caspase-3 = assay: Western blot, cleaved caspase-3 (apoptosis); format: cell-based, human
OS-1 tumor xenografts = assay: OS-1 tumor xenografts; format: in vivo, mouse; conditions: 5 mg/kg via IP for 5 days
Method: In order to provide preliminary data regarding potential toxicities from dosing of LY5, C57BL/6 tumor-free mice were treated with daily intraperitoneal (IP) injections of LY5 at 5 or 10 mg/kg for 7 days. […] Additionally, LY5 at a dose of 5 mg/kg via IP for 5 days inhibited growth of OS-1 tumor xenografts (90% tumor volume compared to baseline), while tumor in vehicle treated mice continued to grow (143% tumor volume compared to baseline).

NS(=O)(=O)c1cccc2c1C(=O)C=C(Nc1cccnc1)C2=O [LY-5, 5,8-dioxo-6-(pyridin-3-ylamino)-5,8-dihydronaphthalene-1-sulfonamide]
pIC50 ([1]; Table 7, read-out: IC50 RD2): 5.86 | pIC50 ([1]; Table 8, read-out: IC50 values vs. cell lines, RD2): 5.86 | binding to STAT3 SH2 protein (STAT3 SH2 domain; 37° C., FIG. 8): binds | pKi (STAT3 SH2 domain; 37° C., STAT3 300 nM, labeled peptide 10 nM): 5.60 | experimental ΔG value (STAT3 SH2 domain; from FP Ki): -7.9 kcal/mol | IFN-γ induced STAT1 phosphorylation at Y701 (STAT1; DLD1, 0-2.5 μM, 2 h): does not inhibit | STAT1 expression and phosphorylation (STAT1; MCF-7, OSM 50 ng/mL): effect the fold change of STAT1 | apoptosis (cleaved caspase 3) (cleaved caspase-3; EW8, 0.5-1.0 μM, 8 h): induction of apoptosis | apoptosis (cleaved caspase-3) in normal cells (cleaved caspase-3; HCSMC, HH and HSMM, 0-1 μM, 2 h): but not in HCSMC, HH and HSMM cells | apoptosis (cleaved caspase-3) (cleaved caspase-3; RD2 and EW8, 0-1 μM, 2 h): induces apoptosis | apoptosis (cleaved caspase-3) (cleaved caspase-3; UW288-1 and UW426, 0-1 μM, 2 h): apoptosis | tumor volume compared to baseline (OS-1 tumor xenografts): 90%
